System: cyclosporine A-induced nephrotoxicity
Experiment: cyclosporine A-induced nephrotoxicity (rise in serum BUN) in SHR rats dosed for 14 days
Format: in vivo, female spontaneously hypertensive (SHR) rats
Settings: for Serum BUN ± S.E.M.: 14 days; for inhibition of the increase in serum BUN: 3 mg/kg/day in saline
Experimental: All experiments were carried out using female spontaneously hypertensive (SHR) rats, weight range 160-200 gm, obtained from Taconic Farms. […] Four thromboxane antagonists have been studied so far. […] Thromboxane antagonists have been administered as the sodium salt dissolved in saline, the sodium salt dissolved in 0.1% NaHCO₃ or the free acid suspended in 1% Methocel.

[1] = 3 mg/kg/day in saline with cyclosporine A 25 mg/kg/day, Combined experiments
[2] = 3 mg/kg/day in saline with cyclosporine A 25 mg/kg/day, Experiment 1
[3] = second experiment combined together

How did the “Serum BUN ± S.E.M.” value [1] turn out when O=C(O)CC1CCCc2c1n(Cc1ccc(Cl)cc1)c1ccc(F)cc21 (racemic) [Compound 2, 9-(p-Chlorobenzyl)-6-fluoro-1,2,3,4-tetrahydrocarbazol-1-yl acetic acid] was run?
The value was 30.3 ± 2.0 mg/100 ml.

And the “Serum BUN ± S.E.M.” value [2]?
Its value is 24.6 ± 1.7 mg/100 ml.

And the “inhibition of the increase in serum BUN” value (one experiment (Table 2))?
The value was “significant inhibition”.

And the “inhibition of the increase in serum BUN” value [3]?
Its value is “no significant inhibition”.

For O=C(O)CC1CCCc2c1n(Cc1ccc(Cl)cc1)c1c(F)cc(F)cc21 (single isomer, unassigned; (-)) [Compound 3, (-)-9-(p-Chlorobenzyl)-6,8-difluoro-1,2,3,4-tetrahydrocarbazol-1-yl acetic acid], which “Serum BUN ± S.E.M.” value (3 mg/kg/day, suspension of free acid in 1% Methocel, with cyclosporine A 25 mg/kg/day, Table 4 (two separate experiments)) is on record?
Its value is 23.2 ± 0.9 mg/100 ml.

And the “Serum BUN ± S.E.M.” value (10 mg/kg/day, suspension of free acid in 1% Methocel, with cyclosporine A 25 mg/kg/day, Table 4 (two separate experiments))?
The value was 24.0 ± 1.1 mg/100 ml.

What about the “inhibition of the rise in serum BUN” value (both doses (3 and 10 mg/kg/day), suspension of the free acid, two separate experiments) of the same compound?
Its value is “significant inhibition”.

What does the source list for CS(=O)(=O)c1ccc(Cn2c3c(c4cc(F)cc(F)c42)CCCC3CC(=O)O)cc1 (single isomer, unassigned; (-)) [Compound 4, (-)-9-(p-Methylsulfonylbenzyl)-6,8-difluoro-1,2,3,4-tetrahydrocarbazol-1-yl acetic acid]?
Serum BUN ± S.E.M. (3 mg/kg/day, suspension of free acid in 1% Methocel, with cyclosporine A 25 mg/kg/day, Table 5): 23.5 ± 1.0 mg/100 ml; Serum BUN ± S.E.M. (10 mg/kg/day, suspension of free acid in 1% Methocel, with cyclosporine A 25 mg/kg/day, Table 5): 21.9 ± 0.8 mg/100 ml; effect on cyclosporine A-induced rises in serum BUN (both 3 and 10 mg/kg/day, suspension of the free acid): effective

Cc1c(CC(C)(C)C(=O)O)n(Cc2ccc(Cl)cc2)c2ccc(F)cc12 [Compound 1, 3-(1-(4-Chlorobenzyl)-3-methyl-5-fluoroindol-2 yl)-2,2-dimethyl propanoic acid] was tested. Which “inhibition of the increase in serum BUN induced by cyclosporine A” value (3 mg/kg/day in 0.1% NaHCO₃) did it give?
The value was “No significant inhibition”.

And the “Serum BUN ± S.E.M.” value (3 mg/kg/day in 0.1% NaHCO₃ with cyclosporine A 25 mg/kg/day)?
The value was 28.3 ± 2.2 mg/100ml.

And the “Serum BUN ± S.E.M.” value [1]?
The value was 28.0 ± 1.6 mg/100 ml.

What about the “Serum BUN ± S.E.M.” value [2] of the same compound?
Its value is 24.5 ± 1.1 mg/100 ml.

And the “inhibition of the increase in serum BUN” value (one experiment (Table 2))?
Its value is “significant inhibition”.

What about the “inhibition of the increase in serum BUN” value [3] of the same compound?
Its value is “no significant inhibition”.

What about the “Serum BUN ± S.E.M.” value (10 mg/kg/day in 0.1% NaHCO₃ with cyclosporine A 25 mg/kg/day, 2 separate experiments) of the same compound?
The value was 23.4 ± 0.9 mg/100ml.

What about the “inhibition of the increase in serum BUN induced by cyclosporine A” value (10 mg/kg/day in 0.1% NaHCO₃, mean of two separate experiments, p < 0.05) of the same compound?
The value was “significant inhibition”.

— patent EP0300675A2, “Method for the improvement of cyclosporine therapy” (MERCK FROSST CANADA INC., priority 1987, dated 1989)
